Experimental data from PubChem BioAssay (NCI).
Values joined by “and” are separate entries in the source; they are usually repeats but may differ in a detail not shown here. Equal entries are not always repeated.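 Compound exposure: 48 hours, 5 concentrations, 96-well plates. GI50 = concentration required for 50% inhibition of growth. TGI: concentration producing complete growth inhibition.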

Experiments:
Test in all cases: DTP human tumour cell line panel, 48 h
A549 NSCLC = system: A549 NSCLC
CCRF-CEM leukemia = system: CCRF-CEM leukemia
COLO 205 colon = system: COLO 205 colon
HL-60(TB) leukemia = system: HL-60(TB) leukemia
HOP-92 NSCLC = system: HOP-92 NSCLC
HT29 colon = system: HT29 colon
NCI-H226 lung = system: NCI-H226 lung
NCI-H23 lung = system: NCI-H23 lung
SK-MEL-2 melanoma = system: SK-MEL-2 melanoma
SK-OV-3 ovarian = system: SK-OV-3 ovarian

Compound	GI50 (A549 NSCLC)	TGI (A549 NSCLC)	GI50 (CCRF-CEM leukemia)	TGI (CCRF-CEM leukemia)	GI50 (COLO 205 colon)	TGI (COLO 205 colon)	GI50 (HL-60(TB) leukemia)	TGI (HL-60(TB) leukemia)	GI50 (HOP-92 NSCLC)	TGI (HOP-92 NSCLC)	GI50 (HT29 colon)	TGI (HT29 colon)	GI50 (NCI-H226 lung)	TGI (NCI-H226 lung)	GI50 (NCI-H23 lung)	TGI (NCI-H23 lung)	GI50 (SK-MEL-2 melanoma)	TGI (SK-MEL-2 melanoma)	GI50 (SK-OV-3 ovarian) [µM]	TGI (SK-OV-3 ovarian)
O=C(Nc1cccc([N+](=O)[O-])c1)c1ccc2ccccc2c1O	6.87 µM	> 100 µM	2.35 µM	> 35.1 µM	15.4 µM	> 57.5 µM	4.71 µM	> 44.5 µM	1.77 µM	6.71 µM	22 µM	> 100 µM	7.57 µM	> 100 µM	3.79 µM	> 89.8 µM	3.18 µM	16.1 µM	7.05	> 59.9 µM
COc1cc(OC)c2cc(C(=O)O)c(=O)oc2c1	> 100 µM	> 100 µM	> 100 µM	> 100 µM	> 100 µM	> 100 µM	> 100 µM	> 100 µM	> 100 µM	> 100 µM	> 100 µM	> 100 µM	> 100 µM	> 100 µM	> 100 µM	> 100 µM	> 35.6 µM	> 53.8 µM	> 100	> 100 µM
Cc1ccc([N+](=O)[O-])cc1NC(=O)C(=O)Cc1cc(=O)oc2cc(O)ccc12		> 100 µM		> 100 µM		> 100 µM		> 100 µM		> 100 µM		> 100 µM		> 100 µM		> 100 µM		> 100 µM		> 100 µM
COc1cc(/C=C/C(=O)C(C(=O)/C=C/c2ccc(OC(=O)CCNc3nnc(C)s3)c(OC)c2)C(=O)CCNc2nnc(C)s2)ccc1OC(=O)CCNc1nnc(C)s1	2.7 µM	7.87 µM	1.09 µM	2.51 µM	2.57 µM	6.94 µM	1.77 µM	3.93 µM	2.48 µM	8.4 µM	1.63 µM	3.56 µM	2.64 µM	8.12 µM	3.19 µM	18.4 µM	2.85 µM	12.5 µM	4.65	23.6 µM
CC1CC(C)/C(=N/NC(N)=O)C(C(O)CC2CCC(=O)NC2=O)C1 (stereo not drawn)	2.36 µM	56.7 µM	2 µM	97.2 µM	3.7 µM	51.5 µM	5.6 µM	> 100 µM	2.31 µM	31.5 µM	3.49 µM	> 100 µM	4.69 µM	> 100 µM	3.57 µM	> 100 µM	2.2 µM	12.3 µM	4.08	> 100 µM
CC(C)=CC(O)C/C(C)=C/CC/C(C)=C/CCC1(C)C(CCCO)/C(=C(/C)C=O)CCC1(C)O (stereo not drawn)		> 100 µM		> 100 µM		> 100 µM		43.7 µM		> 100 µM		70.9 µM		> 100 µM		93 µM		> 100 µM		> 100 µM
O=C(Nc1ccc(Cl)cc1)c1ccc([N+](=O)[O-])o1	2.64 µM	9.21 µM	4.11 µM	49.4 µM	1.75 µM	3.18 µM	2.63 µM	7.66 µM	10.4 µM	27.2 µM	1.34 µM	3.45 µM	1.93 µM	4.6 µM	1.81 µM	4.54 µM	2.76 µM	6.53 µM	2.64	7.27 µM
O=c1[nH]c(=O)n(C2CC(O)C(CO)O2)cc1C#Cc1cc(C(F)(F)F)cc(C(F)(F)F)c1 (stereo not drawn)		> 100 µM		> 100 µM		> 42.7 µM		> 100 µM		> 100 µM		> 51.9 µM		> 100 µM		> 89.3 µM		> 100 µM		> 100 µM
NC(N)=N/N=C(/c1ccccc1)c1ccc(Cl)cc1	15.5 µM	> 100 µM	3.89 µM	> 100 µM	14.4 µM	> 100 µM	1.34 µM	62.2 µM	4.09 µM	90.5 µM	2.93 µM	24.9 µM	29.3 µM	> 100 µM	34 µM	> 100 µM	> 100 µM	> 100 µM	39.7	> 100 µM
Nc1nc(Cl)c(N=Nc2ccc(Cl)cc2)c(NCC2(CO)CC(OCc3ccccc3)C2)n1 (stereo not drawn)	14.7 µM and 62.7 µM and 13.8 µM	51.2 µM and > 100 µM and 32.1 µM		51.5 µM and > 100 µM	27.9 µM and 33.7 µM and 6.17 µM	> 100 µM and 25.6 µM	3.09 µM	29 µM and > 100 µM	1.83 µM and 6.13 µM and 2.33 µM			20 µM and > 100 µM and 14 µM	6.92 µM and 18.9 µM and 6.68 µM	28.9 µM and > 100 µM and 24.9 µM	3.76 µM and 25 µM and 3.09 µM	24.9 µM and > 100 µM and 13.9 µM	17.3 µM and > 31.3 µM and 13.6 µM	61.4 µM and > 100 µM and 28 µM		69.9 µM and > 100 µM and 30 µM
O=C(CC/C(CC(=O)c1ccc(Cl)cc1)=N/O)Nc1ccc(Cl)c(Cl)c1		> 100 µM		> 100 µM		> 100 µM		> 100 µM		> 100 µM		> 100 µM		> 100 µM		> 100 µM		> 100 µM		> 100 µM
COc1ccc(Cn2cnc3cc(C(=O)Nc4cccc5ccccc45)ccc32)c(OC)c1	0.0644 µM	> 100 µM	0.0407 µM	> 100 µM	0.0462 µM	0.724 µM	0.0319 µM	0.145 µM	0.153 µM	> 100 µM	0.0345 µM	5.18 µM	0.111 µM	> 100 µM	0.0898 µM	> 100 µM	0.945 µM	> 100 µM	0.106	> 100 µM
C/C1=C\CC[C@@]2(C)O[C@@H]2C[C@@H]2[C@H](C/C(C)=C/CC1)OC(=O)C21CCN=N1 (stereo partly drawn)	> 100 µM	75 µM and > 100 µM	44.9 µM	75 µM and > 100 µM	> 100 µM	> 100 µM		> 100 µM		> 75 µM	> 100 µM	> 100 µM		> 100 µM	> 100 µM	> 100 µM	> 100 µM	> 100 µM		> 75 µM
O=C1/C(=C/c2ccc(Cl)cc2)CN(Cc2cn(CCNc3ccnc4cc(Cl)ccc34)nn2)C/C1=C\c1ccc(Cl)cc1	0.284 µM	0.834 µM	0.309 µM	> 100 µM	0.354 µM	1.07 µM	0.332 µM	1.1 µM	0.496 µM	1.83 µM	0.231 µM	0.489 µM	0.84 µM	2.69 µM	0.761 µM	2.31 µM	1.88 µM	3.4 µM	1.03	2.38 µM
O=C(NCC(=O)N1CC[C@H](NC2CCC(O)(c3ccc(-c4ncccn4)cn3)CC2)C1)c1cccc(C(F)(F)F)c1 (stereo partly drawn)	> 100 µM	> 100 µM	88.6 µM	> 100 µM	30.2 µM	> 100 µM	55.4 µM	> 100 µM	30.4 µM	> 100 µM	53 µM	> 100 µM	> 100 µM	> 100 µM	52.1 µM	> 100 µM	> 100 µM	> 100 µM	> 100	> 100 µM
Cc1ccc(NSc2ccccc2[N+](=O)[O-])cc1	0.951 µM	17.1 µM	0.85 µM	> 52.2 µM	0.149 µM	3.44 µM	0.368 µM	14.5 µM	0.502 µM	13.7 µM	0.117 µM	12.3 µM	4.04 µM	20.8 µM	1.58 µM	22.6 µM	1.17 µM	21.9 µM	1.06	20.1 µM
C#C[C@@]1(O)CCCC2=CC(=O)C[C@]21C		> 100 µM		> 100 µM		> 100 µM		> 100 µM		> 100 µM		> 100 µM		> 100 µM		> 100 µM		> 100 µM		> 100 µM
O=c1[nH]ccc2nc(-c3ccc(CN4CCC(c5nc(-c6ccccn6)n[nH]5)CC4)cc3)c(-c3ccccc3)cc12	16.2 µM	> 100 µM	2.04 µM	> 100 µM	1.54 µM	> 100 µM	23.6 µM	> 86.7 µM	0.121 µM	> 21.3 µM	1.98 µM	> 100 µM	19 µM	> 100 µM	42.4 µM	> 100 µM	14.7 µM	38 µM	0.124	> 100 µM
COc1cc(Nc2ncc3c(C)nc(-c4cccc(Oc5ccccc5)c4)n3n2)cc(OC)c1OC	6.32 µM	> 25 µM	3.9 µM	> 25 µM	7.68 µM	> 25 µM	6.01 µM	14.1 µM	6.29 µM	> 24.1 µM	5.71 µM	16.3 µM	5.93 µM	> 25 µM	6.68 µM	> 25 µM	2.58 µM	9.71 µM	1.74	> 25 µM
N#CCc1ccc(/C(C#N)=C2/OC(=N)C(c3ccc(CC#N)cc3)C2=O)cc1 (stereo not drawn)		> 100 µM		> 100 µM		> 100 µM		> 100 µM		> 100 µM		> 100 µM		> 100 µM		> 100 µM		> 100 µM		> 100 µM
O=C1CCCC(=O)C1=C(O)CCCCCCCCCCc1ccccc1		> 100 µM		70.8 µM		31.8 µM		35.1 µM		39.6 µM		79 µM		96.9 µM		> 100 µM		49.1 µM		96.8 µM
O=C1Nc2ccccc2/C1=C/c1ccccc1		90.7 µM		71.6 µM		30.9 µM		43.5 µM		25.5 µM		48 µM		37.4 µM		42.7 µM		28.5 µM		98.3 µM
COC(=O)c1c(C)cc2c(c1O)C1(O)C(=O)c3cc4c(c(O)c3C(=O)C1(OC)C(O)C2)C(=O)C=C(NC1OC(C)C(OC)C(O)C1OC)C4=O (stereo not drawn)		1.03 µM		0.166 µM		0.186 µM		0.184 µM		0.443 µM		0.222 µM		0.416 µM		0.0368 µM		0.149 µM		1.58 µM
Cc1ccc(-c2nc3c(C(=O)NCCN(C)C)cccc3[nH]2)cc1		34.5 µM		47.4 µM		20.4 µM		34.2 µM		32.4 µM		80.1 µM		31.7 µM		30.3 µM		32.8 µM		72.8 µM
S=P1(c2ccccc2)Nc2ccc(Cl)cc2N1 (stereo not drawn)		> 100 µM		> 100 µM		45.5 µM		57.5 µM		71.9 µM		> 100 µM		> 100 µM		> 100 µM		> 100 µM		> 100 µM
CC(C)=CCc1ccc(O)c(=O)cc1C(C)C	0.656 µM	> 100 µM	0.485 µM	> 100 µM	3.27 µM	> 100 µM	0.624 µM	8.72 µM	1.32 µM	65.3 µM	1.51 µM	> 100 µM	2.37 µM	> 100 µM	0.701 µM	> 51.3 µM	2.06 µM	> 85.7 µM	0.903	> 100 µM
C/C=C(\CCC1NCCc2c1[nH]c1ccccc21)[Si](C)(C)C (stereo not drawn)		24.9 µM and 21 µM	7.18 µM and 2.17 µM	17.2 µM and 8.44 µM		27.5 µM and 3.26 µM	6.28 µM and 1.51 µM	13.2 µM and 3.3 µM	5.2 µM and 2.56 µM	12.3 µM and 8.5 µM	5.46 µM and 2.21 µM	10.4 µM and 5.03 µM		18.6 µM and 21.6 µM	7.89 µM and 1.61 µM	20.1 µM and 8.2 µM	5.28 µM and 1.94 µM	9.67 µM and 3.7 µM		25.2 µM and 26.5 µM
Cc1ccc(NC(=O)C(=O)C2NC(=S)NC2=O)c([N+](=O)[O-])c1 (stereo not drawn)		> 100 µM		> 100 µM		> 100 µM		> 100 µM		> 100 µM		> 100 µM		> 100 µM		> 100 µM		> 100 µM		> 100 µM
O=C(CC(O)c1ccncc1)c1ccccc1 (stereo not drawn)	29 µM	> 100 µM	30.7 µM	> 100 µM	16.5 µM	31.2 µM	17.6 µM	59.6 µM	16.1 µM	69.6 µM	28.6 µM	85.3 µM	33.9 µM	> 100 µM	42.8 µM	> 100 µM	21.2 µM	55.3 µM	25.4	93.3 µM
